PubChem BioAssay AID2305 (GlaxoSmithKline (GSK), 2010)

Test system: P. falciparum 3D7 growth, pLDH absorbance
Assay: blood-stage malaria parasite growth potency – strain 3D7, dose response (AID 2305)

| SMILES | IC50 |
| --- | --- |
| Cc1cc(-c2ccc3c(c2)CCN(CCC2CCC(NC(=O)/C=C/c4ccccc4F)CC2)CC3)on1 (stereo not drawn) | 810 nM |
| O=S1(=O)C=C(c2ccccc2)CC1 | 200 nM |
| C[C@H](Cc1ccc(S(=O)(=O)c2ccc(C[C@@H](C)NC[C@H](O)c3cccc(Cl)c3)cc2)cc1)NC[C@H](O)c1cccc(Cl)c1 | 260 nM |
| CCc1cn2c3c(cc(C(=O)N[C@@H](Cc4ccccc4)[C@H](O)CNCc4cccc(C)c4)cc13)N(C)S(=O)(=O)CC2 | 250 nM |
| Nc1c2c(nc3ccc(NC(=O)c4ccc([N+](=O)[O-])cc4)cc13)CCCC2 | 240 nM |
| CCCN1CCN(CC(O)CNC(=O)Nc2ccc(Br)cc2)CC1 (stereo not drawn) | 60 nM |
| NCC1CCCN1Cc1ccc(-c2ccc(-c3nc4ccc(F)cc4[nH]3)cc2)cc1 (stereo not drawn) | 930 nM |
| CCOC(=O)c1c(C)n(C2CCCCC2)c2cc(Br)c(O)cc12 | 820 nM |
| CC(C)CNC(=S)N1CCCN(c2nc3ccc(Cl)cc3s2)CC1 | 960 nM |
| Oc1ccc(-c2cncc(NCc3ccc(F)c(F)c3)c2)cc1 | 770 nM |
| CCn1c(SCc2ccccc2)nc2c1c(=O)[nH]c(=O)n2C | 240 nM |
| COc1ccc(C#Cc2ccc(-c3c(C)[nH]c(C)c(Cl)c3=O)cc2)cc1 | 70 nM |
| COc1ccccc1-c1sccc1C(=O)NC1(c2cc(Cl)cc(Cl)c2)CCCC1 | 940 nM |
| O=[N+]([O-])c1ccc(Oc2c(Cl)cc(S(=O)(=O)NC3CCC(CN4CCC(c5c[nH]c6ccccc56)CC4)CC3)cc2Cl)c(Cl)c1 (stereo not drawn) | 760 nM |
| O=C(c1ccccc1)N(Cc1ccccc1-c1ccc(CNCCc2ccccc2)cc1)C1CCN(Cc2ccccc2)CC1 | 990 nM |
| COc1ccc(CN=C(N)Nc2nc(-c3ccc(OCCCn4ccnc4)cc3)cs2)cc1 | 390 nM |
| C[C@H](Cc1ccc(C(=O)OC(c2ccccc2)c2ccccc2)cc1)NC[C@H](O)c1ccccc1 | 180 nM |
| Clc1cc(Cl)c2cc(CNCCCNc3ccc4ccccc4n3)[nH]c2c1 | 340 nM |
| Cn1c(NC(=O)C2CCCN(C(=O)c3ccc(O)c(-c4ccc(Cl)c(Cl)c4)c3)C2)nc2ccccc21 (stereo not drawn) | 750 nM |
| CC(=O)Nc1cccc(NC(=O)CSc2ccc(-c3nc4ccccc4[nH]3)cn2)c1 | 560 nM |
| O=C(/C=C/c1ccc(Cl)c(Cl)c1)NCCCCCN1CCC(NC(=O)Nc2ccc(Oc3ccccc3)cc2)C1 (stereo not drawn) | 590 nM |
| CCOC(=O)c1ccc(-c2c(C(F)(F)F)noc2-c2cc(CC)c(OC)cc2O)o1 | 210 nM |
| CCN(CCS(C)(=O)=O)Cc1ccc(-c2ccc3ncnc(Nc4ccc(OCc5cccc(F)c5)c(Cl)c4)c3c2)o1 | 610 nM |
| CCOC(=O)c1ccc(NC(=O)N[C@H]2CCN(CCCCCNC(=O)/C=C/c3ccc(Cl)c(Cl)c3)C2)cc1 | 740 nM |
| Cc1c(Cc2ccc(C(C)C)cc2)cnc2nc(N)nc(N)c12 | 300 nM |

| SMILES | IC50 |
| --- | --- |
| c1ccc2c(NCCc3cnc[nH]3)c3ccccc3nc2c1 | 1040 nM |
| O=C(c1ccc2ccccc2n1)N1CCCc2cc(Br)ccc21 | 860 nM |
| COc1cc2nc(Nc3ccc4c(ccn4Cc4ccccc4)c3)nc(Nc3ccc4c(ccn4Cc4ccccc4)c3)c2cc1OC | 650 nM |
| CC(=O)Nc1ccc(C(=O)N2CCN(c3ccnc4cc(Cl)ccc34)CC2)cc1 | 910 nM |
| CC(Cc1ccc(CN(CC(N)=O)Cc2ccc(CC(C)NCCc3cccc(Cl)c3)cc2)cc1)NCCc1cccc(Cl)c1 (stereo not drawn) | 670 nM |
| O=C(NCCc1ccccc1)N(Cc1ccccc1-c1cccc(CNCc2ccc3c(c2)OCO3)c1)C1CCN(Cc2ccccc2)CC1 | 990 nM |
| CN1CCN(c2ccnc3ccc(NC(=O)Nc4cccc(C#N)c4)cc23)CC1 | 800 nM |
| CCCCCCn1c(Sc2ccc(C#N)c([N+](=O)[O-])c2)nnc1-c1cc(OC)cc(OC)c1 | 770 nM |
| N=c1c2c(n(Cc3ccccc3)c3c1CCC3)CCCC2 | 870 nM |
| Oc1ccc(Cc2ccccc2)cc1CNC1CCCCC1 | 190 nM |
| Cc1cccc2[nH]c(-c3ccc(-c4ccc(CNCCN5CCNCC5)cc4)s3)nc12 | 1150 nM |
| O=C(Nc1ccc(F)cc1)c1ccc(C(=O)NC2CCN(CC3CCCCC3)CC2)cc1 | 540 nM |
| O=C(N[C@@H](Cc1ccccc1)C(=O)NC1CCCCC1)c1ccc(O)c(-c2ccc(Cl)c(Cl)c2)c1 | 230 nM |
| C[C@H](Cc1ccc(Oc2ccc(C[C@@H](C)NC[C@H](O)c3cccc(Cl)c3)cc2)cc1)NC[C@H](O)c1cccc(Cl)c1 | 560 nM |
| Brc1ccc(Nc2nc(NCc3ccccc3)c3ccccc3n2)cc1 | 340 nM |
| CN1CC=C(c2c[nH]c3ccc(OCc4ccccc4)cc23)CC1 | 720 nM |
| CN1CCN(c2ccc3nc(-c4ccc5nc(-c6ccc(O)cc6)[nH]c5c4)[nH]c3c2)CC1 | 120 nM |
| O=c1cc(NCCCNCc2cccc(C(F)(F)F)c2Cl)[nH]c2ccccc12 | 800 nM |
| Cc1cccc2[nH]c(-c3cccc(-c4cccc(NC(=O)N[C@@H]5C[C@H]5c5ccccc5)c4)c3)nc12 | 710 nM |
| CCc1c[nH]c2c(N3CCCS3(=O)=O)cc(C(=O)N[C@@H](Cc3ccccc3)[C@H](O)CNC3CCCCC3)cc12 | 770 nM |
| COc1cc2ccccc2c(OC)c1CCNCCCCNCCc1c(OC)cc2ccccc2c1OC | 890 nM |
| CCn1ccc2c(N3CCCC3=O)cc(C(=O)N[C@@H](Cc3ccccc3)[C@H](O)CNCc3cccc(OC)c3)cc21 | 590 nM |
| COc1cc(-c2cc3cc(Cl)c(Cl)cc3[nH]2)ccc1C(=O)NC1CCN(Cc2ccccc2)CC1 | 530 nM |
| Cc1ccc2nc(-c3ccc(C=CC(=O)NCc4ccc(Cl)c(Cl)c4)cc3)[nH]c2c1 | 900 nM |
| CC(C)(C)CNCC(C)(C)c1nc(-c2ccc(Cl)c(O)c2)c(-c2ccncc2)[nH]1 | 600 nM |

| SMILES | IC50 |
| --- | --- |
| COc1cc(Nc2ncc3c(C)nc(-c4cc5ccccc5[nH]4)n3n2)cc(OC)c1OC | 1020 nM |
| CC(C)N1CCN(C(=O)c2ccc(CNCCCN3CCN(c4ccccc4C(F)(F)F)CC3)s2)CC1 | 840 nM |
| CC(CN(C)C)C(=O)Nc1cccc(-c2ccc(-c3nc4ccc(F)cc4[nH]3)s2)c1 (stereo not drawn) | 800 nM |
| COc1ccc2nccc([C@@H](O)CN3CCC(NCc4cc5c(Cl)cc(Cl)cc5[nH]4)CC3)c2c1 | 60 nM |
| Cc1ccc(S(=O)(=O)N(C)c2ccccc2C(=O)Nc2ccccc2Oc2ccccc2)cc1 | 920 nM |
| CC(=O)Nc1ccc(CN2CCC(N(C)c3ccc(NC(=O)c4cccc(C)c4)cc3)CC2)cc1 | 990 nM |
| CCc1cn2c3c(cc(C(=O)N[C@@H](Cc4ccccc4)[C@H](O)CNC4CCCC4)cc13)N(C)S(=O)(=O)CC2 | 50 nM |
| CCOC(=O)c1c[nH]c2c(sc3cc(OC)ccc32)c1=O | 390 nM |
| CCc1sc(N2CCN(C)CC2)nc1C(=O)NCCc1ccc(Cl)c(Cl)c1 | 1180 nM |
| Cc1cc(NC(=O)NCCN2CCC(NC(=O)c3ccc(Cl)cc3)CC2)c2ccccc2n1 | 380 nM |
| CCNC[C@H]1CCCN1CCOc1ccc(-n2cnc3cc(-c4ccc(Cl)cc4)sc3c2=O)cc1OC | 810 nM |
| O=C(O)Cc1ccc(-c2c[nH]c3ncc(-c4cccc5ncccc45)cc23)cc1 | 850 nM |
| CCCCCCCCc1c(C)[nH]c(C)c(Br)c1=O | 820 nM |
| c1ccc([C@H]2CN3CCSC3=N2)cc1 | 620 nM |
| CCC(C)NC(=O)Nc1cccc(-c2cccc(-c3nc4c(C)cccc4[nH]3)c2)c1 (stereo not drawn) | 810 nM |
| Nc1nc(N)c2c(ccc3c2ncn3Cc2ccccc2)n1 | 90 nM |
| Cc1c(C)c2c(c(C)c1O)CC[C@@](C)(C(=O)N1CCC(CCN3CCC(c4c[nH]c5ccccc45)CC3)CC1)O2 | 670 nM |
| CCOC(=O)c1ccc(NC(=O)Nc2cccc(-c3cccc(-c4nc5c(C)cccc5[nH]4)c3)c2)cc1 | 110 nM |
| COc1ccc(NC(=O)/C=C/c2ccccc2Cl)cc1OCCN1CCC(Cc2cc3ccccc3[nH]2)CC1 | 900 nM |
| CCOC(C(=O)OCC1CCCN(C)C1)(c1ccccc1)c1ccccc1 (stereo not drawn) | 870 nM |
| CCOc1ccnc(=O)[nH]1 | 460 nM |
| Cc1cccc2[nH]c(-c3ccc(-c4ccc(CN5CCCCC5)cc4)s3)nc12 | 520 nM |
| O=c1cc(NCCCNCc2ccc(Cl)c(Cl)c2)[nH]c2ccc(Cl)cc12 | 340 nM |
| O=C(Nc1ccc(-c2cccc(-c3nc4ccc(C(F)(F)F)cc4[nH]3)c2)cc1)c1ccoc1 | 830 nM |
| CCCNC[C@@H](O)[C@H](Cc1ccccc1)NC(=O)c1cc(NCC)cc(N2CCCC2=O)c1 | 760 nM |

| SMILES | IC50 |
| --- | --- |
| Clc1ccc(NC(=NCCCCCCCN=C(Nc2ccc(Cl)cc2)Nc2ccc(Cl)cc2)Nc2ccc(Cl)cc2)cc1 | 320 nM |
| CC1CCCN(C(=O)c2cc(-c3ccccn3)nc3c(Cl)cccc23)C1 (stereo not drawn) | 1080 nM |
| O=C(Nc1cccc(CN2CCCN(Cc3ncc[nH]3)CC2)c1)c1ccc(-c2ccccc2)cc1 | 650 nM |
| CC(C)c1nc(N2CCN(C(=S)NCc3ccccc3)CC2)c(C#N)c2c1COC(C)(C)C2 | 140 nM |
| CN(CCCCNC(=O)c1cc2ccccc2[nH]1)C1CC2(CCN(C(=O)OC(C)(C)C)CC2)c2ccccc21 (stereo not drawn) | 930 nM |
| CN1CCC(N2CCN(Cc3cccc(-c4ccc(-c5nc6ccccc6[nH]5)cc4)c3)CC2)CC1 | 160 nM |
| Clc1cc2c(Nc3ccc(Oc4ccccc4)cc3)ccnc2cc1-c1ccc(CNCCN2CCOCC2)o1 | 710 nM |
| O=C(Nc1ccc(SC(F)(F)F)cc1)Nc1ccc(Cl)c(Cl)c1 | 910 nM |
| CN=C(NO)NCCN(C)C | 1180 nM |
| CC[C@H]1CN2CC[C@H]1C[C@H]2C(O)c1cc(OC)nc2ccccc12 (stereo partly drawn) | 140 nM |
| O=C(NC1CC1)c1ccc(N2CCC(Cc3ccccc3)CC2)c([N+](=O)[O-])c1 | 610 nM |
| CCCCN1C(=O)[C@H]2CC(=O)CC(C3CCCCC3)[C@H]2C1=O (stereo partly drawn) | 890 nM |
| O=C(Nc1ccccc1)N1CCC(CN2CCOC(c3ccccc3)(c3ccccc3)C2)CC1 | 210 nM |
| Cc1cnc(NCC2CCCCC2)nc1NCC(=O)Nc1ccccc1 | 710 nM |
| CN(CCCCCNC(=O)/C=C/c1ccc(Cl)c(Cl)c1)CCCCc1c[nH]c2ccccc12 | 1080 nM |
| COc1ccc(Nc2nc(NC3CCN(Cc4ccccc4)CC3)cc(-c3ccncc3)n2)cc1 | 990 nM |
| CC(C)(C)OC(=O)C1CCCN(Cc2ccc(-c3cccc(-c4nc5ccccc5[nH]4)c3)cc2)C1 (stereo not drawn) | 360 nM |
| NC(N)=Nc1nc(-c2ccc(NC(=O)Nc3cccc(-c4csc(N=C(N)N)n4)c3)cc2)cs1 | 1010 nM |
| CNCc1ccc(-c2ccc3ccnc(N)c3c2)cc1 | 260 nM |
| COc1ccc(-c2nc(NC(=O)Cc3cccc(OC)c3)sc2C)cc1 | 240 nM |
| O=c1[nH]c(=O)n2c(nc3ccccc32)[nH]1 | 170 nM |
| O=S(=O)(NCCN1CCCC1)c1ccc(-c2ccc(CNCc3ccc(F)cc3)cc2)s1 | 840 nM |
| Nc1ccc(-c2cc(Cl)cc(Cl)c2)cc1-c1cc2ccccc2[nH]1 | 690 nM |
